{"source": "patent US20230355647A1", "about": "“Marker for determining anti-cancer effects of mitochondrial oxidative phosphorylation pathway inhibitor” (NANJING SHIJIANG MEDICINE TECHNOLOGY CO., LTD, priority 2020, published 2023)", "assay_type_in_all_cases": "cell-based", "key": {"Jurkat, Clone E6-1": {"tested_on": "Jurkat, Clone E6-1", "assay": "Cell viability (CellTiter-Glo), Jurkat, Clone E6-1", "conditions": "Homo sapiens, Clone E6-1 cell line, 3-4 days of culture", "method": "(§1) Cell viability was detected using the Promega CellTiter-Glo kit, the kit reflected cell viability by directly measuring intracellular ATP content. The inhibitory effect (IC50 value) of Gboxin, a mitochondrial oxidative phosphorylation pathway inhibitor, on different tumor cell lines was tested in the Example. The name, source, and culture condition of each tumor cell line were as follows:\nCell line Jurkat, Clone E6-1 (ATCC, No. TIB-152) was cultured in 10% fetal bovine serum-containing RPMI1640 medium (+P/S).\n(§2) The above tumor cells were cultured in the relevant medium (+P/S), and incubated for 3 h, then the gradient diluted Gboxin was added, and IC50 (50% inhibiting concentration) was measured after 3-4 days of culture."}, "OCI-LY-19": {"tested_on": "OCI-LY-19", "assay": "Cell viability (CellTiter-Glo), OCI-LY-19", "conditions": "Homo sapiens, OCI-LY19; OCI-LY-19 cell line, 3-4 days of culture", "method": "as §1\nCell line OCI-LY-19 (DSMZ, No. ACC-528) was cultured in 80-90% alpha-MEM medium containing 10-20% h.i. FBS (+P/S).\nas §2"}, "CFPAC-1": {"tested_on": "CFPAC-1", "assay": "Cell viability (CellTiter-Glo), CFPAC-1", "conditions": "Homo sapiens; CFPAC-1 cell line, 3-4 days of culture", "method": "as §1, with “follows: Cell line CFPAC-1 (ATCC, No. CRL-1918) was cultured in 10% fetal bovine serum-containing IMDM medium (+P/S). […] Cell viability was detected using the Promega CellTiter-Glo kit, the kit reflected cell viability by directly measuring intracellular ATP content.” for “follows:”"}, "MDA-MB-453": {"tested_on": "MDA-MB-453", "assay": "Cell viability (CellTiter-Glo), MDA-MB-453", "conditions": "Homo sapiens; MDA-MB-453 cell line, 3-4 days of culture", "method": "as §1, with “follows: Cell line MDA-MB-453 (ATCC, No. HTB-131) was cultured in 10% fetal bovine serum-containing Leibovitz's L-15 medium (+P/S). […] Cell viability was detected using the Promega CellTiter-Glo kit, the kit reflected cell viability by directly measuring intracellular ATP content.” for “follows:”"}, "HCC15": {"tested_on": "HCC15", "assay": "Cell viability (CellTiter-Glo), HCC15", "conditions": "HCC15 cell line, 3-4 days of culture", "method": "as §1\nCell line HCC15 (KCLB, No. 70015) was cultured in 10% fetal bovine serum-containing RPMI1640 medium (+P/S).\nas §2"}, "NCI-H1793": {"tested_on": "NCI-H1793", "assay": "Cell viability (CellTiter-Glo), NCI-H1793", "conditions": "Homo sapiens; NCI-H1793 cell line, 3-4 days of culture", "method": "as §1\nCell line NCI-H1793 (ATCC, No. CRL-5896) was cultured in 5% fetal bovine serum-containing HITES medium (+P/S).\nas §2"}, "C3A": {"tested_on": "C3A", "assay": "Cell viability (CellTiter-Glo), C3A", "conditions": "Homo sapiens; C3A cell line, 3-4 days of culture", "method": "as §1\nCell line C3A (ATCC, No. CRL-10741) was cultured in 10% fetal bovine serum-containing EMEM medium (+P/S).\nas §2"}, "GB-1": {"tested_on": "GB-1", "assay": "Cell viability (CellTiter-Glo), GB-1", "conditions": "Homo sapiens; GB-1 cell line, 3-4 days of culture", "method": "as §1\nCell line GB-1 (JCRB, No. IFO50489) was cultured in 10% fetal bovine serum-containing DMEM medium (+P/S).\nas §2\nCell viability was detected using the Promega CellTiter-Glo kit, the kit reflected cell viability by directly measuring intracellular ATP content. In this experiment, the IC50 values of Oligomycin A or IACS-010759, a mitochondrial oxidative phosphorylation pathway inhibitor, on different tumor cells was determined.\nThe different tumor cells were cultured in the relevant medium (+P/S) as shown in Example 2, and incubated for 3 h, then the gradient diluted Oligomycin A or IACS-010759 was added respectively, and IC50 (50% inhibiting concentration) of Oligomycin A or IACS-010759 on different tumor cells was measured after 3-4 days of culture."}, "SU.86.86": {"tested_on": "SU.86.86", "assay": "Cell viability (CellTiter-Glo), SU.86.86", "conditions": "Homo sapiens; SU.86.86 cell line, 3-4 days of culture", "method": "as §1\nCell line SU.86.86 (ATCC, No. CRL-1837) was cultured in 10% fetal bovine serum-containing RPMI1640 medium (+P/S).\nas §2"}, "SW48": {"tested_on": "SW48", "assay": "Cell viability (CellTiter-Glo), SW48", "conditions": "Homo sapiens; SW48 cell line, 3-4 days of culture", "method": "as §1, with “follows: Cell line SW48 (ATCC, No. CCL-231) was cultured in 10% fetal bovine serum-containing Leibovitz's L-15 medium (+P/S). […] Cell viability was detected using the Promega CellTiter-Glo kit, the kit reflected cell viability by directly measuring intracellular ATP content.” for “follows:”"}, "NCI-H1651": {"tested_on": "NCI-H1651", "assay": "Cell viability (CellTiter-Glo), NCI-H1651", "conditions": "Homo sapiens; NCI-H1651 cell line, 3-4 days of culture", "method": "as §1\nCell line NCI-H1651 (ATCC, No. CRL-5884) was cultured in 10% fetal bovine serum-containing ACL-4 medium (+P/S).\nas §2"}, "786-O": {"tested_on": "786-O", "assay": "Cell viability (CellTiter-Glo), 786-O", "conditions": "Homo sapiens, 786-0; 786-O cell line, 3-4 days of culture", "method": "as §1, with “follows: Cell line 786-O (ATCC, No. CRL-1932) was cultured in 10% fetal bovine serum-containing RPMI1640 medium (+P/S). […] Cell viability was detected using the Promega CellTiter-Glo kit, the kit reflected cell viability by directly measuring intracellular ATP content.” for “follows:”"}, "GAK": {"tested_on": "GAK", "assay": "Cell viability (CellTiter-Glo), GAK", "conditions": "GAK cell line, 3-4 days of culture", "method": "as §1\nCell line GAK (JCRB, No. JCRB0180) was cultured in 20% fetal bovine serum-containing Ham's F12 medium (+P/S).\nas §2"}}, "data": [{"smiles": "CCc1n(CC(=O)O[C@@H]2C[C@H](C)CC[C@H]2C(C)C)c2ccccc2[n+]1C.[Cl-]", "note": "[Gboxin]", "values": [{"measurement": "IC50", "setting": "Jurkat, Clone E6-1", "result": 3.51, "unit": "µM"}, {"measurement": "IC50", "setting": "OCI-LY-19", "result": 2.51, "unit": "µM"}, {"measurement": "IC50", "setting": "CFPAC-1", "result": "> 30", "unit": "µM"}, {"measurement": "IC50", "setting": "MDA-MB-453", "result": 0.942, "unit": "µM"}, {"measurement": "IC50", "setting": "HCC15", "result": 2.26, "unit": "µM"}, {"measurement": "IC50", "setting": "NCI-H1793", "result": 16, "unit": "µM"}, {"measurement": "IC50", "setting": "C3A", "result": 25.7, "unit": "µM"}, {"measurement": "IC50", "setting": "GB-1", "result": "> 30", "unit": "µM"}, {"measurement": "IC50", "setting": "SU.86.86", "result": 13.7, "unit": "µM"}, {"measurement": "IC50", "setting": "SW48", "result": 1.54, "unit": "µM"}, {"measurement": "IC50", "setting": "NCI-H1651", "result": 22.4, "unit": "µM"}, {"measurement": "IC50", "setting": "786-O", "result": "> 30", "unit": "µM"}, {"measurement": "IC50", "setting": "GAK", "result": 7.05, "unit": "µM"}]}]}
